Patent publication US20240368145A1, “METHODS FOR TREATING CANCER” (IMMUNIC AG, priority 2021, published 2024)

Legend:
[1] = test system: prostate cancer cell line 22RV1; assay: Oncolead sulforhodamin B growth inhibition, 22RV1; assay type: cell-based; details: Homo sapiens, sulforhodamin B assay, 72 and 120 h treatment, read-out: GI50 range 22RV1
Method: (§1) Cell growth was assessed by measuring protein content using sulforhodamin B. Growth inhibition was calculated by (TCMD−T0)/TNCT72h−T0)*100% with TCMD is the tumor growth at 72 h with the respective compound concentration. To is the protein content of the cell line before treatment and TNCT72h is the tumor growth of the DMSO control.

[2] = test system: full length AR (AR-FL) mRNA; assay: Androgen receptor RNA level expression (qRT-PCR) in 22Rv1: AR-FL; assay type: cell-based; details: 22Rv1, 1 μM, 48 h; for mrna remaining at 1 µM: Homo sapiens, normalized to untreated control (vehicle/DMSO)
Method: (§2) The prostate cancer cell line 22Rv1 was treated for 48 h with 1 μM Example compound 1, 1/1, 1/2, 2/1, 2/2, 2/3, 2/4, 2/5, 2/6, 2/7, 2/8, 2/9 and 2/10 and the reference compounds SR2211 and XY018 (Nat. Med. 2016; 22:488). RNA was extracted using the RNA isolation kit XS (Macherey-Nagel) and following the manufacture's manual. RNA quantity was measured with the Nanodrop before reverse transcription using Superscript II (Invitrogen #100004925). For the quantitative real-time PCR with SYBR-Green (Qiagen #204074), the following primers were used: AR forward-ACATCAAGGAACTCGATCGTATCATTGC and reverse-TTGGGCACTTGCACAGAGAT, AR-V7: forward-CCATCTTGTCGTCTTCGGAAATGTTATGAAGC and reverse-TTTGAATGAGGCAAGTCAGCCTTTCTT. The qRT-PCR proceeded as follows: denaturation for 5 min 95° C.; 40 cycles of “20 sec at 95° C. and 15 sec at 60° C.” and at the end of the last cycle, the melting temperature of the products was determined by gradually increasing it from 60° C. to 99° C. CT values from all samples were normalized to two different reference (housekeeping) genes using the mean CT value of the GAPDH and YWHAZ (reference genes). Next the values are normalized to the untreated control (vehicle/DMSO).

AR-V7 protein = assay: Androgen receptor protein expression (western blot) in 22Rv1: AR-V7; assay type: cell-based, human; details: 22Rv1, 6 μM, 48 h; for AR-V7 protein level: western blot quantification
Method: (§3) After 48 h, cell were lysed using cell extraction buffer (Life Technologies #FNN0011) for western blot. […] The membrane is then incubation for 1 hour in blocking buffer (5% milk in 20 mM Tris, 150 mM NaCl, pH 7.5, 0.05% Tween 20 [TBS-T]). After this incubation, the primary antibody is added and incubated overnight at 4° C. After washing, the membrane was incubated with the secondary antibody for 1 h. Visualization of the bands was performed using the femto maximum sensitivity substrate reagent and the luminescence signal recorded with the Fusion FX7 (Vilber). For protein quantification, InageJ was used.

AR-FL protein = assay: Androgen receptor protein expression (western blot) in 22Rv1: AR-FL; assay type: cell-based, human; details: 22Rv1, 6 μM, 48 h; for AR-FL protein level: western blot quantification
Method: as §3

KLK2 mRNA = assay: Expression of AR target genes (qRT-PCR) in 22Rv1: KLK2; assay type: cell-based; details: 22Rv1, 1 μM; for mrna remaining at 1 µM: Homo sapiens, 48h, relative to vehicle control (DMSO)
Method: (§4) The prostate cancer cell line 22Rv1 was treated for 48h with 1 μM Example compound 1, 1/1, 2/1, 2/2, 2/3, 2/4, 2/5, 2/6, 2/7, 2/8, 2/9 and 2/10 and reference compounds SR2211 and XY018. RNA was extracted using the RNA isolation kit XS (Macherey-Nagel) and following the manufacture's manual. RNA quantity was measured with the Nanodrop before reverse transcription using Superscript II (Invitrogen #100004925). For the quantitative real-time PCR with SYBR-Green (Qiagen #204074), the following primers were used:
(§5) qRT-PCR was performed using SYBR-Green (Qiagen #204074) reagents in a PCR cycler (Gorbett Research) Rotor Gene RG3000 with the following program: denaturation for 5′ at 95° C.; 40 cycles of 20″ at 95° C. and 15″ at 60° C.″ and at the end of the last cycle, the melting temperature of the products was determined by gradually increasing from 60° C. to 99° C. CT values from all samples were normalized to reference (housekeeping) genes using the mean CT value of the GAPDH and YWHAZ (reference genes). Next the values are put relative to the untreated control (vehicle/DMSO).

AR-V7 mRNA = assay: Androgen receptor RNA level expression (qRT-PCR) in 22Rv1: AR-V7; assay type: cell-based; details: 22Rv1, 1 μM, 48 h; for mrna remaining at 1 µM: Homo sapiens, normalized to untreated control (vehicle/DMSO)
Method: as §2

[3] = test system: prostate cancer cell line LNCAP; assay: Oncolead sulforhodamin B growth inhibition, LNCAP; assay type: cell-based; details: Homo sapiens, sulforhodamin B assay, 72 and 120 h treatment, read-out: GI50 range LNCAP
Method: as §1

[4] = test system: prostate cancer cell line 22RV1, DU145, LNCAP, PC3 and VCaP; assay: Oncolead profiling in a panel of 5 prostate cancer cell lines (summary); assay type: cell-based; details: for inhibition at 30 µM: highest concentration (30 μM), VCaP cell line not included, read-out: average growth inhibition; for growth inhibition: in 4 of 5 prostate cancer cell lines
Method: as §1

[5] = test system: prostate cancer cell line DU145; assay: Oncolead sulforhodamin B growth inhibition, DU145; assay type: cell-based; details: Homo sapiens, DU-145; sulforhodamin B assay; 72 and 120 h treatment; read-out: GI50 range DU145
Method: as §1

CAMKK2 mRNA = assay: Expression of AR target genes (qRT-PCR) in 22Rv1: CAMKK2; assay type: cell-based; details: 22Rv1, 1 μM, 48h; relative to vehicle control (DMSO)
Method: as §4, §5

IL-17A = assay: Cytokine assay, human PBMC stimulated with PHA: IL-17A; assay type: cell-based; details: PHA-activated, 48 hours, read-out: IL-17A inhibition (IC50 range)
Method: (§6) Peripheral blood mononuclear cells (PBMC) from healthy human donors were purified using Accuspin™ System-Histopaque-1077 (Sigma) according to the protocol recommended by the manufacturer. Purified PBMC were then washed twice with phosphate-buffered saline (PBS) and resuspended in RPMI1640 culture medium supplemented with 10% dialyzed heat inactivated fetal calf serum, 1.5 mM L-glutamine, 100 U penicillin/mL and […] streptomycin/mL (all from PAN Biotech, Aidenbach, Germany). For stimulation, PBMC were seeded at 1×10^5 cells/well, activated with 2 gg/mL phytohaemagglutinin (PHA, Sigma) and incubated with the test compounds for 48 hours. IL-17A, IL-17F and INFγ were then determined in the culture supernatant using a Luminex BioPlex system, following the manufacturer's instructions (BioRad, Munich, Germany). To determine the IC50, compounds were titrated semilogarithmically.
(§7) Cytokines were determined in the aforementioned culture supernatant using the following methods: IL-17A was measured using the human homodimer IL-17A ELISA Ready Set Go Kit from cBioscience (Frankfurt, Germany); IL-17F using the human IL-17F ELI-Pair from Holzel Diagnostica GmbH (K51n, Germany); and IFNγ using the OptEIA human IFN-g ELISA from BD Bioscience (Heidelberg, Germany), all following the manufacturer's instructions.

IFNγ = assay: Cytokine assay, human PBMC stimulated with PHA: IFNγ; assay type: cell-based; details: PHA-activated, 48 hours, read-out: IFNγ inhibition (IC50 range)
Method: as §6, §7

SMILES	GI50 [1] [nM]	full length AR (AR-FL) mRNA expression [2]	mrna remaining at 1 µM [2] [%]	AR-V7 protein levels (AR-V7 protein)	AR-V7 protein level (AR-V7 protein)	AR-FL protein levels (AR-FL protein)	AR-FL protein level (AR-FL protein)	KLK2 mRNA level expression (KLK2 mRNA; 48 h)	mrna remaining at 1 µM (KLK2 mRNA) [%]	AR-V7 mRNA expression (AR-V7 mRNA)	mrna remaining at 1 µM (AR-V7 mRNA) [%]	GI50 [3] [nM]	inhibition at 30 µM [4] [%]	growth inhibition [4]	GI50 [5] [nM]	CAMKK2 mRNA expression (CAMKK2 mRNA)	IC50 (IL-17A) [nM]	IC50 (IFNγ) [nM]
CC(C)(O)CCn1ncc(-c2onc(-c3c(F)cccc3Cl)c2-c2ncccn2)c1C(F)(F)F [2/8]	< 25	strong reduction	44.9	strong reduction	0.309	strong reduction	0.421	strong inhibition	60.8	strong reduction	34.8	100 to 5000	80	strong growth inhibition	< 25	1.149	< 25	< 25
COC(=O)c1c(-c2c(F)cccc2Cl)noc1-c1cnn(-c2cccc(Cl)c2)c1C(F)(F)F [Example 1, Methyl 3-(2-chloro-6-fluorophenyl)-5-(1-(3-chlorophenyl)-5-(trifluoromethyl)-1H-pyrazol-4-yl)isoxazole-4-carboxylate]	< 25	strong reduction	44.2	strong reduction	0.368	strong reduction	0.474		59.8	strong reduction	37	25 to 100	80	strong growth inhibition	< 25	0.884	< 25	< 25
Fc1cccc(Cl)c1-c1noc(-c2cnn(-c3cccc(Cl)c3)c2C(F)(F)F)c1-c1nccs1 [Example 1/1]	< 25	strong reduction	43.6	strong reduction	0.323	strong reduction	0.482		74.2	strong reduction	39.5	< 25	80	strong growth inhibition	< 25	0.883	< 25	< 25
